PubChem BioAssay AID504576 (Southern Research Specialized Biocontainment Screening …, 2011)

Test system: MAGI cells cytotoxicity, 2% serum, % cell control
Assay: viability reduction in MAGI cells – cell-based, CCR5-tropic MAGI assay, 2% serum, set 4, cytotoxicity control for HIV-1 antiviral lead project, dose response (AID 504576)

Structure (SMILES)	CC50
Cc1c2c(=O)n(-c3nc4ccccc4s3)nc-2cc(O)n1CCc1ccc(O)cc1	20.5 µM
Cc1c2c(=O)n(-c3nc4ccccc4s3)nc-2cc(O)n1CCc1cccs1	74.8 µM
COc1ccccc1Cn1c(O)cc2nn(-c3nc4ccccc4s3)c(=O)c-2c1C	43.2 µM
Cc1c2c(=O)n(-c3nc4ccccc4s3)nc-2cc(O)n1Cc1ccccc1Cl	32.9 µM
COc1ccc(CCn2c(O)cc3nn(-c4nc5ccccc5s4)c(=O)c-3c2C)cc1	13.8 µM
Cc1c2c(=O)n(-c3nc4ccccc4s3)nc-2cc(O)n1CCC(C)C	65 µM
COc1ccc(Cn2c(O)cc3nn(-c4nc5ccccc5s4)c(=O)c-3c2C)cc1	41.1 µM
